Experimental data from patent US9504675B2, “Alpha-ketoheterocycles and methods of making and using” (The Scripps Research Institute, priority 2011, dated 2016).
pKi: −log10 of the molar value.

What was measured:
[1] = system: endogenous levels of FAAH substrates AEA, PEA, OEA and of 2-AG, AA; assay: In vivo pharmacodynamic studies: brain and liver lipid levels after inhibitor treatment (LC-MS); parameters: species or system mouse (C57BL/6J); conditions: Table 6, 30 mg/kg i.p., 1 h, single mouse; for Brain 2-AG (fold increase) / Brain AA (fold increase) / Brain AEA (fold increase) / Brain PEA (fold increase): vs vehicle
Procedure: This includes monitoring the effects of the inhibitors on the endogenous levels of the FAAH substrates anandamide (AEA, N-arachidonoyl ethanolamine), N-oleoyl ethanolamine (OEA), and N-palmitoyl ethanolamine (PEA), as well as the key lipids 2-arachidonoylglycerol (2-AG) and arachidonic acid (AA) that are not endogenous substrates for FAAH.
Inhibitors were prepared as a saline-emulphor emulsion for intraperitoneal (i.p.) administration by vortexing, sonicating, and gently heating neat compound directly into an 18:1:1 v/v/v solution of saline:ethanol:emulphor, or as a homogeneous PEG solution for oral administration (p.o.) by vortexing, sonicating, and gently heating neat compound directly into PEG300 (Fluka). Male C57BL/6J mice (<6 months old, 20-28 g) were administered inhibitors in saline-emulphor emulsion or an 18:1:1 v/v/v saline:emulphor:ethanol vehicle i.p. at a volume of 10 μL/g weight, or alternatively inhibitors in PEG300 or a PEG300 vehicle p.o. at a volume of 4 μL/g weight. After the indicated amount of time, mice were anesthetized with isofluorane and killed by decapitation. Total brains (˜400 mg) and a portion of the liver (˜100 mg) were removed and flash frozen in liquid N2.
Tissue was weighed and subsequently Dounce homogenized in 2:1:1 v/v/v CHCl3:MeOH:Tris pH 8.0 (8 mL) containing standards for lipids (50 pmol d4-PEA, 2 pmol d4-AEA, 0.5 nmol ds-2-AG, and 10 nmol pentadecanoic acid). The mixture was vortexed and then centrifuged (1,400×g, 10 min). The organic layer was removed, dried under a stream of N2, resolubilized in 2:1 v/v CHCl3:MeOH (120 μL), and 10 μL of this resolubilized lipid was injected onto an Agilent G6410B QQQ instrument. […] Mobile phase A was composed of a 95:5 v/v H2O:MeOH, and mobile phase B was composed of a 65:35:5 v/v/v i-PrOH:MeOH:H2O. 0.1% Formic acid or 0.1% ammonium hydroxide was included to assist in ion formation in positive and negative ionization mode, respectively. The flow rate for each run started at 0.1 mL/min with 0% B. At 5 min, the solvent was immediately changed to 60% B with a flow rate of 0.4 mL/min and increased linearly to 100% B over 10 min. […] MS analysis was performed with an electrospray ionization (ESI) source. […] For negative polarity, the analysis was performed in MS2 scan mode from 100-1000 m/z. The capillary was set to 4 kV, the fragmentor was set to 100 V, and the delta EMV was set to 0. Lipids were quantified by measuring the area under the peak in comparison to the standards.

[2] = system: mice, acute thermal pain (tail flick at 52° C.); assay: Mouse tail flick assay (52° C. warm water), acute thermal pain; assay type: in vivo, mouse (CD-1); conditions: i.v. administration
Procedure: Concurrent with these studies, two prototypical inhibitors 12 and 14 were examined for antinociceptive activity in a preclinical model of acute thermal pain (tail flick at 52° C.) in mice alongside 2 and morphine (i.v. administration).
Male CD-1 (25-35 g, Charles River) mice were housed in groups of five in Plexiglas chambers with food and water available ad libitum. All animals were maintained on a 12 h light/dark cycle (lights on at 7:00 AM) in a temperature- and humidity-controlled animal colony. All tail-flick experiments were performed under an approved University of New England animal protocol in accordance with institutional guidelines and in accordance with the Guide for the Care and Use of Laboratory Animals as adopted and promulgated by the National Institutes of Health. Efficacy of the test compound was assessed using the 52° C. warm water tail-flick test. The latency to the first sign of a rapid tail-flick was taken as the behavioral endpoint. Each mouse was first tested for baseline latency by immersing its tail in the water and recording the time to response. Mice not responding within 5 sec were excluded from further testing. Mice were then administered the test compound and tested for antinociception at various time points afterwards. Antinociception was calculated by the following formula: % Antinociception=100×(test latency−control latency)/(10−control latency). A maximum score was assigned (100%) to animals not responding within 10 sec to avoid tissue damage.

[3] = biological target: T1, recombinant rat FAAH (rFAAH) (Rattus norvegicus, UniProt P97612); assay: Enzyme assay: inhibition of purified recombinant rat FAAH, 14C-oleamide hydrolysis, Ki by Dixon plot; assay type: biochemical; conditions: for pKi: Ki
T1 construct: The truncated rat FAAH (rFAAH) was expressed in E. coli and purified; made in house; host or cells: Escherichia coli
T1 sequence (P97612 30-579 limits assumed): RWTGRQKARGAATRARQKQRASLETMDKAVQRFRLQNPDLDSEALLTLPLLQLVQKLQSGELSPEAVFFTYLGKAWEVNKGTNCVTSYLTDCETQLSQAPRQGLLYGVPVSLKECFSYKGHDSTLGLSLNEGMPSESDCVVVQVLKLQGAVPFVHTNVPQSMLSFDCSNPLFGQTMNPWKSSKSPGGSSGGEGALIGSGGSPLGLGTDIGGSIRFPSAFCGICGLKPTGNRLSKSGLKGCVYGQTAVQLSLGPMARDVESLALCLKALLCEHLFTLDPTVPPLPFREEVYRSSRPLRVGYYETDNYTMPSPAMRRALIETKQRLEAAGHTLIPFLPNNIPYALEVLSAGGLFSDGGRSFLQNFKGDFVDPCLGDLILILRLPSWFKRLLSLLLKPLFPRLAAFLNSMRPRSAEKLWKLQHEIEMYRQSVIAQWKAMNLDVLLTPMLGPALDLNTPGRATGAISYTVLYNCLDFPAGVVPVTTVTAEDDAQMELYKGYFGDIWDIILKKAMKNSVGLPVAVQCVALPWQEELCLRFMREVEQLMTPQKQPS
Outline: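 Hydrolysis of 14C-oleamide at 20-23° C by purified truncated rat FAAH expressed in E. coli or by lysate of COS-7 cells transfected with full-length human FAAH, in 125 mM Tris/1 mM EDTA/0.2% glycerol/0.02% Triton X-100/0.4 mM Hepes, pH 9.0. Reaction stopped in 0.1 N HCl at three time points; substrate and product separated by TLC; Ki from Dixon plot.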

[4] = Table 3, tentatively assigned (S)-enantiomer, indane C2 acyl side chain
[5] = Table 4, (S)-enantiomer, additional FAAH inhibitors

O=C(O)c1cccc(-c2cnc(C(=O)C3Cc4ccc(Oc5ccccc5)cc4C3)o2)n1 (stereo not drawn) [Compound 29, 6-(2-(5-Phenoxyindane-2-carbonyl)oxazol-5-yl)picolinic acid]
Brain 2-AG [1]: 12 pmol/g | Brain AA [1]: 172 pmol/g | Brain AEA [1]: 8 pmol/g | Brain PEA [1]: 131 pmol/g | Brain 2-AG (fold increase) [1]: 0.9 fold increase | Brain AA (fold increase) [1]: 0.8 fold increase | Brain AEA (fold increase) [1]: 1.0 fold increase | Brain PEA (fold increase) [1]: 1.2 fold increase

CN1CC[C@]23c4c5ccc(O)c4O[C@H]2[C@@H](O)C=C[C@H]3[C@H]1C5 [morphine, reference compound]
duration of antinociceptive effect [2]: 150 min

O=C(c1ncc(-c2ccccn2)o1)C1Cc2ccc(Oc3ccccc3)cc2C1 (stereo not drawn) [Compound 27, (5-Phenoxyindan-2-yl)(5-(pyridin-2-yl)oxazol-2-yl)methanone]
Brain 2-AG [1]: 11 pmol/g | Brain AA [1]: 190 pmol/g | Brain AEA [1]: 24 pmol/g | Brain PEA [1]: 800 pmol/g | Brain 2-AG (fold increase) [1]: 0.8 fold increase | Brain AA (fold increase) [1]: 0.9 fold increase | Brain AEA (fold increase) [1]: 3.0 fold increase | Brain PEA (fold increase) [1]: 7.4 fold increase

COC(=O)c1cccc(-c2cnc(C(=O)C3Cc4ccc(Oc5ccccc5)cc4C3)o2)n1 (single isomer, unassigned) [(S)-28]
pKi [3, 4]: 7.01

O=C(c1ncc(I)o1)C1CCc2cc(OCc3ccccc3)ccc2C1 (stereo not drawn) [Compound 21, (6-(Benzyloxy)-1,2,3,4-tetrahydronaphthalen-2-yl)(5-iodooxazol-2-yl)methanone]
potency of more active (S)-enantiomer over (R)-enantiomer ([3]; ratio of FAAH inhibition between enantiomers): ca. 200 fold

O=C(c1nnc(-c2ccccn2)o1)C1CCc2cc(Oc3ccccc3)ccc2C1 (single isomer, unassigned) [(S)-36, (6-Phenoxy-1,2,3,4-tetrahydronaphthalen-2-yl)(5-(pyridin-2-yl)-1,3,4-oxadiazol-2-yl)methanone]
pKi [3, 5]: 9.00

N#Cc1cnc(C(=O)C2CCc3cc(-c4ccccc4)ccc3C2)o1 (single isomer, unassigned) [(S)-5, 2-(6-Phenyl-1,2,3,4-tetrahydronaphthalene-2-carbonyl)oxazole-5-carbonitrile]
pKi ([3]; Table 2, (S)-enantiomer, 1,2,3,4-tetrahydronaphthalene C2 acyl side chain): 8.47

O=C(c1nnc(-c2ccccn2)o1)C1CCc2cc(Oc3ccccc3)ccc2C1 (single isomer, unassigned) [(R)-36, (6-Phenoxy-1,2,3,4-tetrahydronaphthalen-2-yl)(5-(pyridin-2-yl)-1,3,4-oxadiazol-2-yl)methanone]
pKi ([3]; Table 4, (R)-enantiomer, additional FAAH inhibitors): 8.20

O=C(c1ncco1)C1CCc2ccccc2C1 (single isomer, unassigned) [(S)-37, Oxazol-2-yl(1,2,3,4-tetrahydronaphthalen-2-yl)methanone]
pKi [3, 5]: 5.29

O=C(O)c1cccc(-c2cnc(C(=O)C3Cc4ccc(Oc5ccccc5)cc4C3)o2)n1 (single isomer, unassigned) [(S)-29, 6-(2-(5-Phenoxyindane-2-carbonyl)oxazol-5-yl)picolinic acid]
pKi [3, 4]: 7.15

O=C(c1nnco1)C1CCc2cc(Oc3ccccc3)ccc2C1 (single isomer, unassigned) [(S)-34, (1,3,4-Oxadlazol-2-yl)(6-phenoxy-1,2,3,4-tetrahydronaphthalen-2-yl)methanone]
pKi [3, 5]: 9.30

COC(=O)c1cccc(-c2cnc(C(=O)C3Cc4ccc(OCc5ccccc5)cc4C3)o2)n1 (single isomer, unassigned) [(S)-32, Methyl 6-(2-(5-(Benzyloxy)indane-2-carbonyl)oxazol-5-yl)picolinate]
pKi [3, 4]: 8.24

COC(=O)c1cccc(-c2cnc(C(=O)C3Cc4ccc(OCc5ccccc5)cc4C3)o2)n1 (single isomer, unassigned) [(R)-32, Methyl 6-(2-(5-(Benzyloxy)indane-2-carbonyl)oxazol-5-yl)picolinate]
pKi ([3]; Table 3, (R)-enantiomer, indane C2 acyl side chain): 6.89
